Data: publication PMC3509069, “A DKP Cyclo(L-Phe-L-Phe) Found in Chicken Essence Is a Dual Inhibitor of the Serotonin Transporter and Acetylcholinesterase” (PLoS ONE, 2012)

Biological target: T1, acetylcholinesterase (AChE) (Homo sapiens, UniProt P22303)
T1 construct: amphiphilic form from human erythrocytes
Test: colorimetric AChE assay with MATP+ substrate
Type: biochemical

T1 sequence (P22303 other isoform, or with tags, fused parts or gaps): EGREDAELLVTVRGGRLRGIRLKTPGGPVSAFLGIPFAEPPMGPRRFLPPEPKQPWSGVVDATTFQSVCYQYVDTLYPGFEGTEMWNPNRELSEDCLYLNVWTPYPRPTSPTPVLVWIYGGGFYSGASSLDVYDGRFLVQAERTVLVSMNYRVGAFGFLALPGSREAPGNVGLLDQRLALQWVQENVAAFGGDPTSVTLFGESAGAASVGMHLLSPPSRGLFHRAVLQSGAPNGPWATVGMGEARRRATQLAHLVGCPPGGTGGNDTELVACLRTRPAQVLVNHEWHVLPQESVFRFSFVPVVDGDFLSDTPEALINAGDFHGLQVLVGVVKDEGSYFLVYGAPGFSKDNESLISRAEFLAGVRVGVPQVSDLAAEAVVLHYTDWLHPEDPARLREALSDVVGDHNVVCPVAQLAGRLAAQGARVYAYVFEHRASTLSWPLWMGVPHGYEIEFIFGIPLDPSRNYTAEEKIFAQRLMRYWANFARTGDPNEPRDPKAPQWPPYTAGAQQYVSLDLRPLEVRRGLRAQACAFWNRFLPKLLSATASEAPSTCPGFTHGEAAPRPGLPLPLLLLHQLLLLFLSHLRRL

## O=C1[C@@H]2CCCN2C(=O)[C@@H]2CCCN12 [cyclo(L-Pro-L-Pro)]
  IC50: 160 µM

## O=C1NC(Cc2ccccc2)C(=O)NC1Cc1ccccc1 [cyclo(L-Phe-L-Phe)]
  IC50: ~3.4 µM
